Legend:
D(2) dopamine receptor = D(2) dopamine receptor (Homo sapiens, UniProt P14416); assay: Displacement of [3H]N-methylspiperone from human dopamine D2 receptor expressed in human HEK293 cell membrane for 1 hr by liquid scintillation counting analysis; assay type: cell membranes
D(4) dopamine receptor = biological target: T1, D(4) dopamine receptor (Homo sapiens, UniProt P21917); assay: Displacement of [3H]N-methylspiperone from human dopamine D4 receptor expressed in human HEK293 cell membrane for 1 hr by liquid scintillation counting analysis; assay type: cell membranes
T1 sequence (P21917 whole entry): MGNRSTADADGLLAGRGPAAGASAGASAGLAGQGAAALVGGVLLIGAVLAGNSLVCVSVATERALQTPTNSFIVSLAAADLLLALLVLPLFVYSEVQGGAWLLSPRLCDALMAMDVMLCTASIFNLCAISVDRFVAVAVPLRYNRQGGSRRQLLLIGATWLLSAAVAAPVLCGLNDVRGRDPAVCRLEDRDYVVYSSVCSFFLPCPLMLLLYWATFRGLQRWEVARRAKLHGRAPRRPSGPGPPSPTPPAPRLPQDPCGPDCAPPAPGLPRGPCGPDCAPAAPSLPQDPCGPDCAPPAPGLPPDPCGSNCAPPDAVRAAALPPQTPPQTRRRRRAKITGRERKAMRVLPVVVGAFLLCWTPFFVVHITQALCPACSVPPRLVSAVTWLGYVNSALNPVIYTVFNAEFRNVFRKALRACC

D(3) dopamine receptor = D(3) dopamine receptor (Homo sapiens, UniProt P35462); assay: biochemical
Sequence of D(3) dopamine receptor (P35462 whole entry): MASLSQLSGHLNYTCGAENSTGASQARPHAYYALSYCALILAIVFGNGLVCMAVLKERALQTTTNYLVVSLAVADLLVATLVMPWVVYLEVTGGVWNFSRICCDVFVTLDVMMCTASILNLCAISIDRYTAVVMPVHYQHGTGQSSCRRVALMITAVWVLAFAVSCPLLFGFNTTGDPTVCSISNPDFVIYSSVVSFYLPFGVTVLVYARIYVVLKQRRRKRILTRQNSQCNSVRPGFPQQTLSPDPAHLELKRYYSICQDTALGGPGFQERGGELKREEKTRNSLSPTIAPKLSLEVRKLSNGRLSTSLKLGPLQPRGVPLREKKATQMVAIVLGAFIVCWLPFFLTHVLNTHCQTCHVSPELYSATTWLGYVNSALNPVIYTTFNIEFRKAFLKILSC
Description: Displacement of [3H]N-methylspiperone from human dopamine D3 receptor expressed in human HEK293 cell membrane for 1 hr by liquid scintillation counting analysis

Sequence of D(2) dopamine receptor (P14416 whole entry): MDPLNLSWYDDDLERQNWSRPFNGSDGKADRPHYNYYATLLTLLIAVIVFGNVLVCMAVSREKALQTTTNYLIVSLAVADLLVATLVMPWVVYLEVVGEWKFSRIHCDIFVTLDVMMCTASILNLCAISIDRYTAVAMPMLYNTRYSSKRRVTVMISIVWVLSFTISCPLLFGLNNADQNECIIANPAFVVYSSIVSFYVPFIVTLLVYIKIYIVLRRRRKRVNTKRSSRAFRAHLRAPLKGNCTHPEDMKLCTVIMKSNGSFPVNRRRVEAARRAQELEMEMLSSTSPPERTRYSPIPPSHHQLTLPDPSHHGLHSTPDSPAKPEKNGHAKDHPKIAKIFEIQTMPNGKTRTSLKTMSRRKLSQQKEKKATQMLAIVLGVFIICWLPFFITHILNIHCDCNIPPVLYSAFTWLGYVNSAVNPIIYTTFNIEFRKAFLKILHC

Ki (D(2) dopamine receptor): 7.4 µM
Ki (D(4) dopamine receptor): > 3 µM
Ki (D(3) dopamine receptor): 0.56 µM
SMILES: O=C(NCCC(CF)N1CCN(c2cccc(Cl)c2Cl)CC1)c1cc2ccccc2o1 (stereo not drawn)

Reference: ChEMBL document CHEMBL3286326, “Chiral Resolution and Serendipitous Fluorination Reaction for the Selective Dopamine D3 Receptor Antagonist BAK2-66” (ACS Med Chem Lett, 2014)
